Measurements as given in patent publication US20220008359A1, “COMBINATION ANTI-CANCER PRODUCTS AND METHODS” (priority 2020, published 2022).
Marks after values point to notes of the source that are not given here.

Experiments:
[1] = test system: afatinib-resistant (AR) H1975 cells; test: In-cell immunostaining of protein expression and phosphorylation, afatinib-resistant H1975 cells; assay type: cell-based, human; conditions: 1975 AR; 6 h; GZ17-6.02 2 mM final curcumin, pemetrexed 500 nM; vehicle 100%
Procedure: […] Cells were fixed in place 6 hours after treatment and immunostaining of single cells performed to determine the levels of each protein/phosphor-protein (n=3+/−SD). * p<0.05 less than vehicle control; # p<0.05 greater than vehicle control.
(§1) Generation of erlotinib, afatinib and osimertinib-resistant cells. Cells were incubated in vitro with increasing concentrations of vehicle control or erlotinib or osimertinib until after ˜6 weeks the HCC827 and H1975 and H1650 cells grew with similar kinetics to sensitive cells in either erlotinib ([…]) or osimertinib ([…]), respectively. Afatinib-resistant cells were created in vivo by repeated high dosing until tumors disappeared and then regrew, as previously described.
(§2) Assessments of protein expression and protein phosphorylation. Multi-channel fluorescence HCS microscopes perform true in-cell western blotting. Three independent cultures derived from three thawed vials of cells of a tumor were sub-cultured into individual 96-well plates. Twenty-four hours after plating, the cells are transfected with a control plasmid or a control siRNA, or with an empty vector plasmid or with plasmids to express various proteins. After another 24 hours, the cells are ready for drug exposure(s). At various time-points after the initiation of drug exposure, cells are fixed in place using paraformaldehyde and using Triton X100 for permeabilization. Standard immunofluorescent blocking procedures are employed, followed by incubation of different wells with a variety of validated primary antibodies and subsequently validated fluorescent-tagged secondary antibodies are added to each well. The microscope determines the background fluorescence in the well and in parallel randomly determines the mean fluorescent intensity of 100 cells per well.

[2] = test system: osimertinib-resistant (OR) H1975 cells; test: In-cell immunostaining of protein expression and phosphorylation, osimertinib-resistant H1975 cells; assay type: cell-based, human; design: HDAC 1 expression / HDAC 2 expression / HDAC 3 expression / HDAC 4 expression / HDAC 5 expression / HDAC 6 expression / HDAC 7 expression / HDAC 8 expression / HDAC 9 expression / HDAC 10 expression / HDAC 11 expression: scale not given here; conditions: 6 h
Procedure: as §1, §2

[3] = 1975 OR, GZ17-6.02 2 mM final curcumin, pemetrexed 500 nM
[4] = 1975 OR, GZ17-6.02 2 mM final curcumin, pemetrexed 500 nM, vehicle 100%
[5] = 1975 OR, GZ17-6.02, pemetrexed 500 nM, vehicle 100%

## Nc1nc2[nH]cc(CCc3ccc(C(=O)N[C@@H](CCC(=O)O)C(=O)O)cc3)c2c(=O)[nH]1 [PEM, Pemetrexed]
[1]
  ATG5: 107%
  Beclin1: 111%
  CD95: 101%
  CHOP: 104%
  ERBB1: 101%
  ERBB2: 100%
  ERBB3: 99%
  ERBB4: 100%
  ERK2: 99%
  FAS-L: 108%
  GRP78: 109%
  JAK2: 100%
  P-AKT T308: 88%
  P-AMPKα T172: 107%
  P-ATG13 S318: 105%
  P-ATM S1980: 108%
  P-B1: 93%
  P-B2: 97%
  P-B3: 97%
  P-B4: 96%
  P-ERK1/2: 98%
  P-JAK2: 87* %
  P-NFκB S536: 98%
  P-PDGFRβ: 84* %
  P-PERK T980: 102%
  P-SRC Y416: 92%
  P-SRC Y527: 109%
  P-STAT3 Y705: 95%
  P-STAT5 Y694: 94%
  P-ULK1 S317: 105%
  P-ULK1 S757: 95%
  P-c-MET: 102%
  P-c-MT: 88%
  P-eIF2α S51: 103%
  P-mTOR S2448: 95%
  P-mTOR S2481: 83* %
  PDGFRβ: 100%
  PP1: 104%
  c-KIT: 101%
  c-MET: 100%
  p70 S6K: 100%
  p70 S6K T389: 97%
[2]; [3]
  ERK2 expression: 101
  HDAC 1 expression: 97
  HDAC 2 expression: 93
  HDAC 3 expression: 98
  HDAC 4 expression: 100
  HDAC 5 expression: 95
  HDAC 6 expression: 93
  HDAC 7 expression: 98
  HDAC 8 expression: 101
  HDAC 9 expression: 97
  HDAC 10 expression: 100
  HDAC 11 expression: 101
[2]; [4]
  ATG5: 110%
  Beclin1: 111%
  CD95: 100%
  CHOP: 107%
  ERBB1: 99%
  ERBB2: 100%
  ERBB3: 101%
  ERBB4: 100%
  ERK2: 100%
  FAS-L: 110%
  GRP78: 115# %
  P-AMPKα T172: 112%
  P-ATG13 S318: 106%
  P-ATM S1980: 109%
  P-B1: 88%
  P-B2: 92%
  P-B3: 93%
  P-B4: 95%
  P-ERK1/2: 96%
  P-JAK2: 89%
  P-NFκB S536: 92%
  P-PDGFRβ: 98%
  P-PERK T980: 101%
  P-SRC Y416: 90%
  P-SRC Y527: 112%
  P-STAT3 Y705: 88%
  P-STAT5 Y694: 87* %
  P-ULK1 S317: 103%
  P-ULK1 S757: 96%
  P-c-MET: 88%
  P-c-MT: 90%
  P-eIF2α S51: 101%
  P-mTOR S2448: 94%
  P-mTOR S2481: 92%
  PDGFRβ: 100%
  PP1: 105%
  c-KIT: 101%
  c-MET: 100%
  p70 S6K: 101%
  p70 S6K T389: 98%
[2]; [5]
  JAK2: 98%
  P-AKT T308: 87* %
[2]; H1975 OR, VEH = 100
  BCL-XL expression: 90
  ERK2 expression: 101
  FLIP-s expression: 98
  MCL-1 expression: 84*
